“Also recorded” adds a separate entry of the source.
Tests used:
[1] = biological target: T1, hIDE (Homo sapiens, UniProt P14735); test: In vitro hIDE inhibition of insulin hydrolysis; format: biochemical; conditions: substrate native insulin; means of two experiments minimum, s.d.±10%; read-out: Selectivity IC50 hIDE
T1 construct: made in house
T1 sequence (P14735 1-1019): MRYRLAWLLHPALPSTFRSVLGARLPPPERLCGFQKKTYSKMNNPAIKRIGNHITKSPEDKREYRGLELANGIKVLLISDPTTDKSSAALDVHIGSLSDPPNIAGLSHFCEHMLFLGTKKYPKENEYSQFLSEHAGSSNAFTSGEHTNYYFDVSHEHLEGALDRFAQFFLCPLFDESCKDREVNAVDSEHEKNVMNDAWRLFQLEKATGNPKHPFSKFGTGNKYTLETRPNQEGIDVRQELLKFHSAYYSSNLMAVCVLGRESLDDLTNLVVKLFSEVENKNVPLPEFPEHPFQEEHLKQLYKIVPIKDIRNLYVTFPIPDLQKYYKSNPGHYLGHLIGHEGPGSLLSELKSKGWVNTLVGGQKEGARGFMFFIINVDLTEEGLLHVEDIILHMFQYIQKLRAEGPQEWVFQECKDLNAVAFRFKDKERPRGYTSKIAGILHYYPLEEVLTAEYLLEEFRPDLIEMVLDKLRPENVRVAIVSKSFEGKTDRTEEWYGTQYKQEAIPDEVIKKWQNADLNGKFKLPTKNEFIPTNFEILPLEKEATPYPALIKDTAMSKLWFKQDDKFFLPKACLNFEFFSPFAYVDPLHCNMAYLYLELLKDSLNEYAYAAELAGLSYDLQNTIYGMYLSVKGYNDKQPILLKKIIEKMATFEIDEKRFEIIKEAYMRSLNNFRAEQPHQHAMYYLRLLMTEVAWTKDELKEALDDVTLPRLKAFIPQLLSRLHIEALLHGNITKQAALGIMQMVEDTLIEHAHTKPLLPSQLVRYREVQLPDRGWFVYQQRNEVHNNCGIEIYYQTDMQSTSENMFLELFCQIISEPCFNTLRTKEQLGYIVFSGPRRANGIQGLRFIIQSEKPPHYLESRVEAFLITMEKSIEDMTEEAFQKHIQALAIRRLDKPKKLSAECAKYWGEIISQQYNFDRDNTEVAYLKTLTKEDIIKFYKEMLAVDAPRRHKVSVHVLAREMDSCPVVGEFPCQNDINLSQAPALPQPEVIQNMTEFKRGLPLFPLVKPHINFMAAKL
Experimental: The enzymatic activity of hIDE was assayed quantifying the amount of insulin (Actrapid) at the end of the reaction. The quantity of insulin was determined using a Luminex kit (HMHMAG-34K, Millipore). 20 μl of WT IDE in Hepes buffer (50 mM with 100 mM NaCl, pH 7.4) at 1 μg ml^−1 were pre-incubated 10 min at ambient temperature with 20 μl of test compound or vehicle in 96-well microtiter plates (dark, non-binding surface). The reaction was then started by the addition of 40 μl of insulin at 40 nM. The final concentration of hIDE and substrate was 0.25 μg ml^−1 and 20 nM, respectively. Incubations were performed at ambient temperature for 10 min. The reaction was then stopped by addition of 80 μl of 200 mM EDTA. The samples were diluted by a factor of 3, and 15 μl were transferred to 96-well microtiter plates (dark, clear bottom, non-binding surface) containing 15 μl of assay buffer (from Luminex Kit). Fifteen microlitre of insulin magnetic beads were added. Incubation was performed during 16–18 h at 4 °C under agitation. Wells were washed three times and 30 μl of hormone panel antibodies were added. The samples were incubated 30 min at ambient temperature under agitation. 30 μl of strepdavidin-phycoerythrin were added. Incubation was performed 30 min at ambient temperature under agitation. Wells were washed three times and 80 μl of drive fluid were added. The plate was then read with the MagPix apparatus. Data analysis was performed using Xlfit v 5.0 and GraphPad Prism v 4.0. Nonlinear curve fitting and statistical analysis was done using equation 1: […]
where A is minimum value of y; B is range of y; C is the IC50 value and D is slope factor.

[2] = system: human SY5Y neuroblastoma cells; test: Aβ1–40 secretion by differentiated SH-SY5Y cells (ELISA); format: cell-based; conditions: 10 μM and 30 μM, 48 h
Experimental: The human neuroblastoma cell lines SH-SY5Y were provided from ATCC (cat. no. crl2266) with a Certificate of Analysis and not checked in the lab for mycoplasma contamination. […] SH-SY5Y were seeded in a 96-well plate at 200,000 cells per cm^2. […] Differentiated cells were then incubated with compounds at 10 μM and 30 μM in presence of 0.1% DMSO.

[3] = system: insulin receptor, Akt and ERK phosphorylation; test: Insulin signalling by western blotting in liver and muscle; format: in vivo, mouse; conditions: 50 mg kg^−1 ip, after insulin injection
Experimental: Liver and muscle were homogenized in a lysis buffer (1% triton, 0.5 % deoxycholate, 10 mM Na pyruvate, 2 mM Na Vanadate, 100 mM NaF) supplemented with the proteases inhibiteurs cocktails) and the resulting homogenate clarified by centrifugation. Proteins expression and phosphorylation were evaluated by western blot analysis. The signals were detected with a Pierce ECL western blotting substrate (Thermo scientific), according the manufacturer instructions. Primary antibodies were diluted at 1/1,000 and incubated overnight in PBS 0.1% Tween 20, 5% milk.

[4] = system: NOD mice; test: Oral glucose tolerance test (OGTT) in NOD mice; format: in vivo, mouse; conditions: 50 mg kg^−1 ip
Experimental: OGTT and IPGTT were performed on 11 to 16 week-old male or female mice (n=4–7 per experimental group). C57BL/6J mice were purchased from Charles River Laboratories (France), Stock no. 000664. C57BL/6J Ide−/− mice were obtained from Guenette[20] and bred in the animal facility of INSERM U1151. WT C57BL/6J mice of the same genetic background were bred in the same animal facility in parallel. NOD Ide−/− mice were generated by backcrossing C57BL/6J Ide−/− mice with NOD wt mice bred in the animal facility of INSERM U1151 and maintained in this facility together with WT NOD mice. Normoglycemic WT and Ide−/− female NOD mice aged 14 weeks were used for OGTTs. Following a 6 h fasting period, a small tail cut was made, basal blood glucose was determined. […] Fifteen minutes later, blood glucose concentrations were measured before and after (up to 120 min, as shown) oral (2 g kg^−1 or 3 g kg^−1, as shown) or intraperitoneal (1.5 g kg^−1) glucose administration. […] Blood glucose levels were determined using an Accu-Check glucometer (Roche Diagnostics). Areas under the curves (AUC) for OGTT and IPGTT were calculated to evaluate glucose tolerance. Plasma insulin concentrations were measured by ELISA (cat. no. 10-1247-01,Mercodia) in blood samples collected 15 min before and 15 and 90 min relative to oral glucose injection. […]

O=C(C[C@@H](Cc1ccc2ccccc2c1)n1cc(CNC(=O)c2ccc(F)cc2)nn1)NO [Compound 1]
IC50 [1]: 60 nM
Aβ1–40 in culture supernatants [2]: significant elevations; also recorded: significantly increased; also recorded: dose-dependent increase
insulin signalling: phosphorylation of insulin receptor, Akt and ERK in liver and muscle [3]: Increase insulin signaling; also recorded: increased the phosphorylation
glucose tolerance in OGTT, WT NOD ([4]; 14 week-old female WT NOD mice, 3 g kg^−1 glucose): strong impairment of glucose tolerance
insulinaemia in OGTT, WT NOD ([4]; WT NOD mice): hyperinsulinemia
